Results published in patent EP3398599A1, “COMPOSITIONS AND METHODS FOR PROPHYLAXIS AND TREATMENT OF ADDICTIONS” (priority 2009, dated 2010).

Tests used:
msP rats = assay: Voluntary ethanol intake, acute treatment, free choice between water and 10% alcohol 24 hours a day; assay type: in vivo; details: for ethanol intake: 2, 8 and 24 hours
Experimental: The drug was given orally (OS) via gavage procedure in a volume of 1.0 ml/kg. Yohimbine was dissolved in distilled water and was administered intraperitoneally (IP) in a volume of 1.0 ml/kg. […] These drugs were given orally (OS) via gavage procedure in a volume of 1.0 ml/kg. Yohimbina was dissolved in distilled water and was administered intraperitoneally (IP) in a volume of 1.0 ml/kg. GW9662 was prepared in 5% DMSO and 5% TWIN 80 and was given either IP (1 ml/kg) or intacerebroventricularly (ICV, 1 µl/rat). Antalarmin was prepared in 10 % TWIN 80 and was given IP (1 ml/kg). Ondansetron was prepared in acqueous solution and was given IP (1 ml/kg).
At the beginning of the experiments, msP rats were allowed free choice between water and 10% (v/v) alcohol 24 h/day for at least 15 days. The fluids were offered in graduated drinking tubes equipped with metallic drinking spouts. The position (to the right or left) of alcohol and water drinking tubes was changed daily to avoid the development of side preference. […] Alcohol, water and food intakes were measured.
MsP rats were first trained to drink 10% (w/v) alcohol for 24 hours a day (free choice between water and ethanol). […] Before starting the treatment, rats were trained to gavage administration procedures for three days, during which they received vehicle (distilled water). […] Drinking experiments started at the beginning of the dark cycle. Alcohol, water and food intakes were monitored at 2, 8 and 24 hours after ethanol was made available.
Before starting the treatment, rats were trained to gavage and IP administration procedures for three days. Experiment was conducted in a between subject design (n = 22). […] Drinking experiments started at the beginning of the dark cycle. Alcohol, water and food intakes were monitored at 2, 8 and 24 hours after ethanol was made available.
The experiment was conduced using a within subject counterbalanced Latine square design, where each animal received all drug doses.
The drinking experiments were conducted at the beginning of the dark cycle, and alcohol, water and food intakes were monitored at 2, 8 and 24 hours after ethanol was made available.
MsP rats were first trained to drink 10% (w/v) alcohol for 24 hours a day (free choice between water and ethanol). […] Rats treated with drug vehicles served as a control. Before starting the treatment, rats were trained to gavage administration for three days, during which they received drugs vehicle (distilled water). […] Drinking experiments started at the beginning of the dark cycle. Alcohol, water, and food intakes were monitored at 2, 8 and 24 hours after ethanol was made available.
(§1) MsP rats were first trained to drink 10% (w/v) alcohol for 24 hours a day (free choice between water and ethanol). […] Rats treated with drug vehicles served as a control. Before starting the treatment, rats were trained to gavage administration for three days, during which they received drugs vehicle (distilled water). […] Drinking experiments started at the beginning of the dark cycle. Alcohol, water and food intakes were monitored at 2, 8 and 24 hours after ethanol was made available.
as §1
MsP rats were first trained to drink 10% (w/v) alcohol for 24 hours a day (free choice between water and ethanol). […] Rats treated with drug vehicles served as a control. Before starting the treatment, rats were trained to gavage administration for three days, during which they received drugs vehicle (distilled water).

heavy tobacco smokers = assay: Pilot study in heavy tobacco smokers (pioglitazone 15-30 mg/daily, varenicline 0.5 to 2.0 mg/day, bupropione 150 mg/kg); assay type: in vivo, human; details: for STAI score (anxiety): over 10 treatment weeks
Text: […] Patients were instructed to record in a personal logbook the number of cigarettes per day and the time of the day smoking occurred. At the end of the study, the logbooks were returned to the clinical personnel who analyzed the data. Every other week, participants were interviewed and subjected to the Spielberger State-Trait Anxiety Inventory (STAI), the Montgomery Asberg Depression Rating Scale (M.A.D.R.S 10 Item), and to a Visual Analogic Scale (VAS) to measure nicotine craving. During the first month of treatment, every two weeks, ACTH and cortisol levels were also monitored to evaluate HPA activation before and during treatment.

human patients = assay: Observational study of alcohol abuse in human patients (pioglitazone 30 mg/day or naltrexone 50 mg/day + psychotherapy); assay type: in vivo; details: T=0 (beginning of the treatment)
Text: Patients were instructed to record in a personal logbook the number of drinks per day and the time of the day drinks occurred. At the end of the study, the logbooks were returned to the clinical personnel who analyzed the data.
In addition, biochemical parameters to ascertain alcohol detoxification and to measure recovery of physiological functions (i.e., hepatic function) were monitored monthly. Hematological parameters measured included: mean corpuscular volume (MCV); gamma-GT; aspartate aminotransferase (AST); alanine aminotransferase (ALT); and carbohydrate-deficient transferring (CDT). MCV and CDT are biomarkers for ethanol consumption, and GGT, ALT and AST are biomarkers for hepatic functionality.
Data were analyzed by analysis of variance followed by Newman-Keuls post hoc tests when appropriate.

CD mice [1] = assay: Morphine-induced analgesic tolerance, tail-flick test; details: mouse, in vivo
Experimental: All procedures were conducted in adherence to the European Community Council Directive for Care and Use of Laboratory Animals.
Mice were divided into 6 groups. Group 1 (n=8) received drug vehicles (veh/veh). […] Animals were treated twice daily (between 9:00 and 10:00 a.m. and 9:00 and 10:00 p.m.).
Morphine hydrochloride was purchased from Salars (Milano, Italy). Morphine (30 mg/kg) was dissolved in NaCl […] and was injected intraperitoneally (IP) twice a day at the indicated doses in a volume of 0.2 ml per mice. […] It was dissolved in distilled water and was administered per o.s. at the doses of 10 mg/kg and 30 mg/kg in a volume of 0.6 ml per mice.
Two different tests were used to monitor analgesic responses. The tail-flick test was performed 45 min after the morning injection of morphine, and the tail-immersion test was performed 45 min after the evening injection of morphine.
For the tail-flick test, each mouse was gently restrained in a soft tissue pocket, and the tail (1 cm from the tip) was exposed to a hot light beam. Latency for tail-flick was measured with a 6 seconds cut-off time. For the tail-immersion test, each mouse was restrained in a soft tissue pocket, and the distal half of the tail dipped into a water bath set at 52 C°. Latency for removing the tail from the hot water was measured with a 10 seconds cut-off time.

CD mice [2] = details: mouse, in vivo

SMILES: Cc1nccn1CC1CCc2c(c3ccccc3n2C)C1=O (centres unmarked) [ondansetron]
- ethanol intake in msP rats in a pilot study (msP rats; ondansetron 1.0 mg/kg IP): did not reduce ethanol intake
- ethanol intake (msP rats; ondansetron alone 1.0 mg/kg IP, given twice): did not significantly modify ethanol intake

SMILES: CC(NC(C)(C)C)C(=O)c1cccc(Cl)c1 (centres unmarked) [bupropione]
- STAI score (anxiety) (heavy tobacco smokers): not with bupropione

SMILES: CCc1ccc(CCOc2ccc(CC3SC(=O)NC3=O)cc2)nc1 (centres unmarked) [pioglitazone]
- Anxiety Score obtained using The STAY-Y1 scale (mean score values) (human patients): 59

SMILES: NCC1(CC(=O)O)CCCCC1 [gabapentin]
- ethanol intake in msP rats in a pilot study (msP rats; gabapentin 60.0 mg/kg OS): did not reduce ethanol intake
- ethanol intake (msP rats; gabapentin alone 60.0 mg/kg OS): did not significantly modify ethanol intake

SMILES: CNCCC(Oc1ccc(C(F)(F)F)cc1)c1ccccc1 (centres unmarked) [fluoxetine]
- ethanol intake in msP rats in a pilot study (msP rats; fluoxetine 3.0 mg/kg OS): did not reduce ethanol intake
- ethanol intake (msP rats; fluoxetine alone 3.0 mg/kg OS, given twice): did not significantly modify ethanol intake

SMILES: CN1CCN2c3ncccc3Cc3ccccc3C2C1 (centres unmarked) [mirtazapine]
- ethanol intake in msP rats in a pilot study (msP rats; mirtazapine 5.0 mg/kg OS): did not reduce ethanol intake
- ethanol intake (msP rats; mirtazapine alone 5.0 mg/kg OS, given twice): did not significantly modify ethanol intake

SMILES: O=C(Nc1ccccc1)c1cc([N+](=O)[O-])ccc1Cl [GW9662]
- ethanol intake per se (msP rats; GW9662 5 µg/rat ICV alone): did not significantly affect ethanol intake per se
- pioglitazone-induced reduction of ethanol intake (msP rats; GW9662 5 µg/rat ICV with pioglitazone 30 mg/kg OS): completely prevented the effect of pioglitazone
- pioglitazone-induced reduction of ethanol intake (msP rats; GW9662 IP (1.0 and 5.0 mg/kg) with pioglitazone 30 mg/kg OS): blocked the effect of pioglitazone in a dose related manner
- ethanol drinking (msP rats; GW9662 alone (1.0 and 5.0 mg/kg IP)): did not modify ethanol drinking

SMILES: CC1(C)O[C@@H]2[C@@H](CO[C@@]3(COS(N)(=O)=O)OC(C)(C)O[C@@H]23)O1 [topiramate]
- ethanol intake in msP rats in a pilot study (msP rats; topiramate 30.0 mg/kg OS): did not reduce ethanol intake
- ethanol intake (msP rats; topiramate alone 30.0 mg/kg OS, given twice): did not significantly modify ethanol intake
- ethanol intake at 2 hours (msP rats; topiramate alone 30.0 mg/kg OS, p<0.05): significant reduction of ethanol intake at 2 hours

SMILES: CN1CC[C@]23c4c5ccc(O)c4O[C@H]2[C@@H](O)C=C[C@H]3[C@H]1C5 [morphine]
- time to tail-flick on day 1, 3 and 5 (CD mice [1]): significantly increased the time to tail-flick
- time to tail-flick on test days 7 and 9 (CD mice [1]): non significant difference from controls
- analgesic effect (tail-immersion) on test day 9 (CD mice [2]): marginally significant
- tail-immersion latency on day 1, 3, 5, and 7 (CD mice [2]): significantly increased the time to tail-flick

SMILES: CC[C@@H](C(N)=O)N1CCCC1=O [levetiracetam]
- ethanol intake in msP rats in a pilot study (msP rats; levetiracetam 100.0 mg/kg OS): did not reduce ethanol intake
- ethanol intake (msP rats; levetiracetam alone 100.0 mg/kg OS, given twice): did not significantly modify ethanol intake

SMILES: c1cnc2cc3c(cc2n1)[C@@H]1CNC[C@H]3C1 [varenicline]
- Percent inhibition of smoking (heavy tobacco smokers; Patient 1, T=0 (baseline expressed as 100%)): 100%
- Percent inhibition of smoking (heavy tobacco smokers; Patient 1, T=2 weeks of treatment): 34%
- Percent inhibition of smoking (heavy tobacco smokers; Patient 1, T=4 weeks of treatment): 46%
- Percent inhibition of smoking (heavy tobacco smokers; Patient 1, T=6 weeks of treatment): 61%
- Percent inhibition of smoking (heavy tobacco smokers; Patient 1, T=8 weeks of treatment): 80%
- Percent inhibition of smoking (heavy tobacco smokers; Patient 1, T=10 weeks of treatment): 93%
- Percent inhibition of smoking (heavy tobacco smokers; Patient 2, T=0 (baseline expressed as 100%)): 100%
- Percent inhibition of smoking (heavy tobacco smokers; Patient 2, T=2 weeks of treatment): 22%
- Percent inhibition of smoking (heavy tobacco smokers; Patient 2, T=4 weeks of treatment): 47%
- Percent inhibition of smoking (heavy tobacco smokers; Patient 2, T=6 weeks of treatment): 63%
- Percent inhibition of smoking (heavy tobacco smokers; Patient 2, T=8 weeks of treatment): 87%
- Percent inhibition of smoking (heavy tobacco smokers; Patient 2, T=10 weeks of treatment): 100%
- Percent inhibition of smoking (heavy tobacco smokers; Patient 3, T=0 (baseline expressed as 100%)): 100%
- Percent inhibition of smoking (heavy tobacco smokers; Patient 3, T=2 weeks of treatment): 38%
- Percent inhibition of smoking (heavy tobacco smokers; Patient 3, T=4 weeks of treatment): 54%
- Percent inhibition of smoking (heavy tobacco smokers; Patient 3, T=6 weeks of treatment): 62%
- Percent inhibition of smoking (heavy tobacco smokers; Patient 3, T=8 weeks of treatment): 79%
- Percent inhibition of smoking (heavy tobacco smokers; Patient 3, T=10 weeks of treatment): 94%
- STAI score (anxiety) (heavy tobacco smokers): significantly reduced
- subjects reaching complete abstinence (heavy tobacco smokers; pioglitazone 4 patients, varenicline 3 patients): one of them
- percent of weekly smoked cigarettes: pioglitazone vs varenicline (heavy tobacco smokers; post hoc tests): no significant differences
